This is an account of results in US20020028807A1, “Non-nucleoside reverse transcriptase inhibitors” (priority 2000, published 2002).

For experiment [1], the system named is HIV coding for mutant reverse transcriptase K103N/V108I. Description: ELISA (p24) assay of HIV replication in C8166 cell culture, K103N/V108I virus. Type of experiment: cell-based, HIV-1. Conditions: Human immunodeficiency virus 1, C8166, 72 h, read-out: EC50 K103N/V108I. As for the experimental part: (§1) Compounds of the invention were tested for their ability to inhibit HIV replication in cell culture in a 96-well plate assay. Complete RPMI 1640, consisting of RPMI 1640+10% fetal bovine serum, 10 μg/ml gentamycin and 10 μM β-mercaptoethanol was used for dilution of the compound as well as cell growth medium. The T lymphocyte cell line C8166 was infected at a multiplicity of infection of 0.001 with viruses coding for wild-type and mutant reverse transcriptase. Cells were then incubated for three days in the presence of serial dilutions of the compounds of the invention. The supernatant was pooled from eight replica wells and the concentration of extracellular p24 was determined using a commercially available HIV-1 p24 antigen assay kit (Beckman-Coulter®). The level of inhibition (% inhibition) was calculated with the following equation: [formula]

The subject of experiment [2] is HIV coding for wild-type reverse transcriptase (WT RT). Description: ELISA (p24) assay of HIV replication in C8166 cell culture, wild-type RT virus. Conditions: Human immunodeficiency virus 1, C8166, 72 h, read-out: EC50 WT RT. Type of experiment: cell-based, HIV-1. The gist of the method:
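C8166 T cells infected at MOI 0.001 with wild-type or mutant RT HIV, then grown 3 days with serial compound dilutions in RPMI 1640 + 10% FBS. Extracellular p24 in supernatant pooled from eight replica wells measured by ELISA; % inhibition calculated from p24 levels.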

Experiment [3] deals with T1, HIV-1 RT wild-type (WT) (Human immunodeficiency virus type 1 group M subtype B, UniProt P03366).
T1 construct: an HIV RT clone pKRT2 containing only the RT p66 gene regulated by the lac operon/trc promoter; made in house; host or cells: E. coli JM109, vector pKK233-2
The experiment in a line: Reverse transcriptase (RT) assay, wild-type enzyme. Type of experiment: biochemical.

Experiment [4] deals with T2, HIV-1 RT G190A (Human immunodeficiency virus type 1 group M subtype B, UniProt P03366, G789A).
T2 construct: an HIV RT clone pKRT2 containing only the RT p66 gene regulated by the lac operon/trc promoter; made in house; host or cells: E. coli JM109, vector pKK233-2
The experiment in a line: Reverse transcriptase (RT) assay, G190A mutant. Type of experiment: biochemical. The text has this: Among the enzymes for which Human Immunodeficiency Virus (HIV-1) encodes is a reverse transcriptase (1), so-named because it transcribes a DNA copy from an RNA template. This activity can be quantitatively measured in a cell-free enzyme assay and is based upon the observation that reverse transcriptase is able to use a synthetic template poly r(C) primed with a biotinylated oligo d(G) to transcribe a radio-labelled DNA strand utilising 3H-dGTP as a substrate. The assay described below utilises the wild-type enzyme (which is the predominant form of the enzyme observed in patients infected with HIV-1) and can also be used with mutant RT enzymes (for example, Y181C, prepared by site-directed mutagenesis in which the tyrosine residue at codon 181 has been replaced by a cysteine residue) in analogous assay conditions. This assay allows compounds to be evaluated for their effectiveness at inhibiting the mutant enzymes.
Some HIV-1 IIIB clone BH10 RT mutants were provided by Dr. C.-K. Shih (Boehringer Ingelheim Pharmaceutials Inc., U.S.A.) in the vector pKK233-2 (Pharmacia). Briefly an HIV RT clone pKRT2 containing only the RT p66 gene regulated by the lac operon/trc promoter was obtained from Dr. W. Summers (Yale University) (2). A variety of specific amino acid substitutions were introduced into the wild-type RT gene by site-directed mutagenesis. RT clones were subcloned into the pKK233-2 bacterial expression vector. Clones provided included wild-type, Val106Ala, Tyr181Cys, Tyr188Cys, Tyr188Leu, Gly190Ala and Pro236Leu. Others were made in-house by site-directed mutagenesis of the pKK233-2 RT clones including Lys103Asn, Lys103Asn/Tyr181Cys, Lys103Asn/Leu100Ile, Lys103Asn/Pro225His, and Lys103Asn/Val108Ile.
Purification of recombinant reverse transcriptase was performed using a combination of methods previously described (3). A single colony from a fresh plate of transformed JM109 cells was used to initiate growth of a pre-culture grown o/n at 37° C. Two liters of growth medium were inoculated with this pre-culture. At OD600˜1.5 (5-6 h at 37° C.), RT gene expression was induced with IPTG (1 mM final), and the fermentation was continued for a few more hours at 37° C. After centrifugation, supernatants were discarded while cell pellets were pooled and stored at −80° C. until purification. Cells were thawed at 4° C. overnight and suspended in lysis buffer (MES 50 mM pH 6, EDTA 1 mM, 10% v/v glyerol, 0.02% w/v OBG, 0.02% w/v sodium azide). Lysozyme was added and the mixture was incubated on ice for 40 minutes. After homogenization using a bounce in presence of lysozyme and sonication, the cells were centrifuged for 30 minutes. Supernatant (S1) was saved and stored at 4° C. The centrifuged pellet was resuspended in extraction buffer (MES 50 mM pH 6, KPO4 50 mM pH 6, KCl 100 mM, 10% v/v glycerol, 0.02% w/v OBG, 0.02% w/v sodium axide) and stirred for 30 minutes at 4° C. This second mixture was centrifuged again and the supernatant (S2) was saved. The above procedure was repeated 2 more times saving supernatants S3 and S4 and one last extraction was performed overnight (S5). Polymin P (0.005% final) was added to the combined supernatants to remove nucleic acids. This solution was stirred for 75 minutes at 4° C. and centrifuged for 1 h. The supernatant (SS1) was precipitated on ice with 20% w/v ammonium sulfate and stirred for 1 h at 4° C. The mixture was then centrifuged and the resulting supernatant (SS2) was precipitated with additional 40% w/v ammonium sulfate (60% total), stirred for 1 h and centrifuged again. The final pellet (P1) was stored overnight at 4° C. before undergoing purification the following day. All steps of the purification were performed at 4° C. unless otherwise stated.
Pellet (P1) was resuspended into MES 50 mM pH 6, KPO4 10 mM pH 6, KCl 100 mM, 10% v/v glycerol, 0.02% w/v OBG, 0.02% w/v sodium azide. The suspension was dialysis against the same buffer overnight using 12-14 kD MWCO dialysis tubing. […]

In experiment [5] the test system is HIV coding for mutant reverse transcriptase Y181C. The experiment in a line: ELISA (p24) assay of HIV replication in C8166 cell culture, Y181C virus. Type of experiment: cell-based, HIV-1. Conditions: Human immunodeficiency virus 1, C8166, 72 h, read-out: EC50 Y181C. As for the experimental part:
as §1

Experiment [6] has as its system HIV coding for mutant reverse transcriptase K103N/P225H. The experiment in a line: ELISA (p24) assay of HIV replication in C8166 cell culture, K103N/P225H virus. Type of experiment: cell-based, HIV-1. To be noted: Human immunodeficiency virus 1, C8166, 72 h, read-out: EC50 K103N/P225H. As for the experimental part:
as §1

For experiment [7], the system named is HIV coding for mutant reverse transcriptase K103N/Y181C. Description: ELISA (p24) assay of HIV replication in C8166 cell culture, K103N/Y181C virus. Type of experiment: cell-based, HIV-1. Conditions: Human immunodeficiency virus 1, C8166, 72 h, read-out: EC50 K103N/Y181C. Here is the method: as §1
The target of experiment [8] is T3, HIV-1 RT Y181C (Human immunodeficiency virus type 1 group M subtype B, UniProt P03366, Y780C).
T3 construct: an HIV RT clone pKRT2 containing only the RT p66 gene regulated by the lac operon/trc promoter; made in house; host or cells: E. coli JM109, vector pKK233-2
Description: Reverse transcriptase (RT) assay, Y181C mutant. Type of experiment: biochemical. The gist of the method: (§2)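 Tritium incorporation from 3H-dGTP into newly synthesised DNA is the read-out. The mutant reverse transcriptases copy a synthetic poly r(C) template carrying a biotinylated oligo d(G) primer. Each mutant enzyme is tested under the same conditions used for wild-type RT.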

Experiment [9] has as its target T4, HIV-1 RT K103N/P225H (Human immunodeficiency virus type 1 group M subtype B, UniProt P03366, K702N/P824H).
T4 construct: an HIV RT clone pKRT2 containing only the RT p66 gene regulated by the lac operon/trc promoter; made in house; host or cells: E. coli JM109, vector pKK233-2
Description: Reverse transcriptase (RT) assay, K103N/P225H mutant. Type of experiment: biochemical. The gist of the method:
as §2

Consider `CCN1c2ncc(CCOc3cc[n+]([O-])c4ccccc34)cc2C(=O)N(C)c2ccc(F)nc21` [compound 11, 5,11-Dihydro-11-ethyl-2-fluoro-5-methyl-8-{2-{(1-oxido-4-quinolinyl)oxy}-ethyl}-6H-dipyrido[3,2-b:2′,3′-e][1,4]diazepin-6-one], for which the EC50 in experiment [1] was 3.9 nM; in experiment [2], 0.34 nM; in experiment [5], 4.1 nM; in [6], 2 nM; in experiment [7], 7.5 nM. Moreover, the IC50 amounted to 9.5 nM in experiment [3], 19 nM in experiment [4], 27 nM in experiment [8] and 15 nM in experiment [9].

For `CCN1c2ncc(CCOc3cc[n+]([O-])c4ccccc34)cc2C(=O)N(C)c2ccc(Cl)nc21` [compound 17, 2-Chloro-5,11-dihydro-11-ethyl-5-methyl-8-{2-{(1-oxido-4-quinolinyl)oxy}-ethyl}-6H-dipyrido[3,2-b:2′,3′-e][1,4]diazepin-6-one], the EC50 in experiment [1] worked out at 2.7 nM; in [2] it was 0.34 nM; in [5], 2.8 nM; in [6], 1.2 nM; in experiment [7] it was 2.3 nM. Further, the IC50 in [3] was determined as 14 nM; in experiment [4] it was 25 nM; in experiment [8], 29 nM; in experiment [9] it was 23 nM.

Regarding `CCN1c2ncc(CCOc3cc[n+]([O-])c4ccccc34)cc2C(=O)N(C)c2cccnc21` [compound 21, 5,11-Dihydro-11-ethyl-5-methyl-8-{2-{(1-oxido-4-quinolinyl)oxy}ethyl}-6H-dipyrido[3,2-b:2′,3′-e][1,4]diazepin-6-one], the EC50 in [1] came to 5 nM; in experiment [2], 0.53 nM; in [5], 4.8 nM; in experiment [6], 2.9 nM; in [7] it was 4.3 nM. Also, the IC50 in experiment [3] worked out at 17 nM; in experiment [4], 26 nM; in experiment [8] it was 51 nM; in [9], 40 nM.
